Test results as given in patent US20230134843A1, “TREATMENT OF STEM CELL DEFICIENCY” (OSPEDALE SAN RAFFAELE S.R.L., priority 2020, published 2023).

Test system: CD45+ cells
Experiment: CD45+ inflammatory cell infiltration by immunohistochemistry, acute GVHD mouse model
Type: in vivo, mice
Conditions: Fosaprepitant 10 mg/mL topically six times a day, day 29
Experimental: 10-week-old male BALB/C and C57BL/6N mice (Charles River Laboratory, Lecco, Italy) were used for all the experiments (n=5/each group). All mice were free from ocular surface disease at baseline. The housing conditions were controlled (temperature 22° C., light from 07:00-19:00, humidity 50%-60%), and fresh food and water were freely available. The animals were monitored 3 times per week for 28 days post-transplantation for in vivo slit-lamp microscopy imaging, ocular surface score and systemic GVHD score (FIG. 11A). Carbon dioxide inhalation and subsequent cervical dislocation were applied to euthanize the animals. All the experiments were approved by the Animal Care and Use Committee of the IRCCS San Raffaele Scientific Institute, in accordance with the ARVO Statement for the Use of Animals in Ophthalmic and Vision Research.
Allogenic BMT was conducted using the C57BL/6N and BALB/c mice as transplant donors and recipients, respectively. The recipient mice received total body irradiation (TBI) (900 cGy divided in two fractions) from a Cs source 1 day before the transplantation. The donor C57BL/6N mice were sacrificed on dry ice and they femur and spleen were harvested. The bones were gently crushed manually using a sterile stick, and bone marrow (BM) cells were released by mixing the fragments of bones with RPMI. The suspension of BM cells was filtered to remove the impurities inside. The spleens were also gently crushed into a cell suspension and filtered. Inventors suspended the BM cells and splenic cells with RPMI and adjusted the density of cells to 1×10^6/[…] and 2×10^6/[…], respectively. […]
Mice were sacrificed 28 days after BM transplantation (Day 29 post irradiation) by carbon dioxide inhalation. […] Following three washes with PBS-T, sections were incubated in anti-goat HRP for 15 minutes and then detected with a goat-on-rodent HRP-Polymer Kit (Biocare Medical). Primary antibody labeling was detected using brown DAB substrate (Vector Laboratories, Burlingame, Calif., USA). […]

In the case of `C[C@@H](O[C@H]1OCCN(Cc2nc(=O)n(P(=O)(O)O)[nH]2)[C@H]1c1ccc(F)cc1)c1cc(C(F)(F)F)cc(C(F)(F)F)c1` [Fosaprepitant, [3-{[(2R,3S)-2-[(1R)-1-[3,5-bis(trifluoromethyl)phenyl]ethoxy]-3-(4-fluorophenyl)morpholin-4-yl]methyl}-5-oxo-2H-1,2,4-triazol-1-yl]phosphonic acid], the “CD45+ cell infiltration in the lacrimal gland” value (among all groups) is reported as “no significant difference”, the “CD45+ cell infiltration in the conjunctiva” value (p<0.0001) is reported as “significantly reduced” and the “CD45+ cell infiltration in the cornea” value (p<0.01) is reported as “significantly reduced”.
